This note sets out measurements from patent US9260759B2, “Pyrazoloanthrone and derivatives thereof for the treatment of cancers expressing MISRII” (The General Hospital Corporation, priority 2007, dated 2016).

Assay [1] deals with cancer cells. Put plainly: Apoptosis of cancer cells. In kind it is cell-based. Particulars: 2-5 μM as compared with 10-20 μM. An excerpt:
Paclitaxel has been used in the treatment of a wide range of tumors, including ovarian, breast, and prostate. It exerts its effect by targeting the microtubules and arresting the cells in G2/M phase, leading to the induction of apoptosis (Bhalla et al, 2003, Oncogene 22:9075-908645). […] Additionally, paclitaxel is thought to exert a biphasic apoptosis effect through a p53-dependent pathway that induces apoptosis at lower concentrations, whereas at higher concentrations, it inhibits p53 expression in an […] carcinoma cell line (Tan et al., 2002; Int J Cancer 97:168-172).

Assay [2] concerns c-jun. Put plainly: Western blot of anisomycin-induced c-jun phosphorylation in MOVCAR cells. In kind it is cell-based, mouse. As for the experimental part:
The results are representative of several experiments.
Cells were washed in PBS and lysates were prepared in 1× Passive lysis buffer (PLB) provided with the Dual luciferase reporter assay kit (Promega). The lysates were cleared by centrifugation and the protein concentration was determined by Bradford assay (Bio-Rad, Hercules Calif.). […] of protein were loaded onto a NuPAGE 4-12% Bis-Tris gradient gel with MOPS-buffer (Invitrogen, Carlsbad Calif.) for polyacrylamide gel electrophoresis. Following transfer to a nitrocellulose by electroblotting, the membrane was blocked in 5% milk Tris-buffered saline/Tween20 (TBS-T) for 1 h at room temperature and incubated with primary antibody (pJNK, c-jun and phosph c-jun antibodies were purchased from Cell Signalling, Danvers, Mass.; amd JNK antibody was published from Santa Cruz Biotechnology, Calif.) overnight at 4° C. in 5% BSA followed by incubation with secondary horseradish peroxidase conjugated anti-rabbit antibody (Jackson ImmunoResearch, Westgrove Pa.) for 1 h. Immunoreactive proteins were detected by enhanced chemiluminescence (Pierce, Rockford Ill.). Anisomycin was purchased from Calbiochem.
The known Jun kinase activator anisomycin was used as a positive control (Hazzalin, 1998). […] Further, MIS had no effect on phosphorylation of JNK by anisomycin.

Consider `O=C1c2ccccc2-c2n[nH]c3cccc1c23` [SP600125, anthra[1,9-cd]pyrazol-6(2H)-one], for which the apoptosis result in assay [1] is on record as “did not result in apoptosis”. The “c-jun phosphorylation induced by 500 nM anisomycin” value in assay [2] (pre-treatment 10 uM SP600125) is “marginal and inconsistent inhibition”; in assay [2] (pre-treatment 25 uM), “inhibition of c-jun phosphorylation”.
